c1ccc2[nH]cnc2c1
solubility (mole fraction)
Settings	283.15 K	288.15 K	293.15 K	298.15 K	303.15 K	308.15 K	313.15 K	318.15 K	323.15 K
in 1,4-dioxane	0.0138	0.0171	0.0192	0.0215	0.0242	0.0256	0.0292	0.0321	0.0384
in 2-butanone	0.0222	0.0265	0.03	0.0341	0.0393	0.0451	0.0521	0.0582	0.0664
in acetone	0.0192	0.022	0.0256	0.0296	0.0342	0.0398	0.0452	0.0525	0.0576
in acetonitrile	0.00513	0.0063	0.00754	0.00905	0.0107	0.0123	0.0148	0.0166	0.0194
in ethanol	0.0767	0.0837	0.0911	0.0993	0.109	0.118	0.125	0.14	0.152
in ethyl acetate	0.00813	0.0094	0.0108	0.0128	0.0143	0.0167	0.0193	0.0223	0.0259
in isobutanol	0.0747	0.083	0.0947	0.103	0.114	0.125	0.134	0.139	0.156
in isobutyl acetate	0.00698	0.00808	0.00944	0.0103	0.0122	0.0137	0.016	0.0176	0.0197
in isopropanol	0.0636	0.073	0.0785	0.0852	0.0959	0.109	0.117	0.13	0.134
in isopropyl acetate	0.00761	0.00867	0.01	0.0113	0.0132	0.0152	0.0169	0.0191	0.0219
in methanol	0.0888	0.097	0.105	0.113	0.12	0.129	0.143	0.157	0.17
in methyl acetate	0.00781	0.00918	0.0108	0.0126	0.0146	0.0167	0.0198	0.0228	0.0265
in n-butanol	0.0857	0.091	0.105	0.113	0.121	0.13	0.141	0.15	0.161
in n-butyl acetate	0.0064	0.00759	0.00873	0.0102	0.0121	0.0144	0.0166	0.0182	0.0216
in n-pentanol	0.0983	0.105	0.109	0.119	0.129	0.137	0.143	0.155	0.165
in n-propanol	0.0798	0.0896	0.0961	0.107	0.113	0.121	0.137	0.147	0.156
in n-propyl acetate	0.00645	0.0076	0.009	0.0105	0.0127	0.0141	0.0165	0.0189	0.0219
in sec-butanol	0.0881	0.0973	0.105	0.11	0.117	0.127	0.137	0.151	0.162
in water	0.000498	0.000604	0.000739	0.000874	0.000994	0.00115	0.00133	0.00156	0.00184
